In US10828269B2, “Reducing muscle atrophy by administering astaxanthin” (FUJI CHEMICAL INDUSTRIES CO., LTD., priority 2004, dated 2020):

Columns and labels:
Assay in all cases: GeneChip gene expression in renal glomerulus
Assay type in all cases: in vivo, mouse
[1] = test system: collagen, type XXV, alpha 1; conditions: probe 1438655_a_at, 0.02% in diet, 12 weeks
Method: (§1) Type II diabetic female db/db mice and non-diabetic db/m were purchased from Clea Japan, Inc. Mice were bred under the conditions with a 12 hours light-dark cycle at a temperature of 21° C. to 25° C. For acclimation, mice were fed CE-2 (Clea Japan, Inc.) with free access to water for one week. The mice were divided into three groups each consisting of 8 mice (non-diabetic db/m, diabetic db/db, and astaxanthin-administered db/db) and each group was bred with feed ad libitum. Mice in astaxanthin-administered group were fed a diet in which 0.02% astaxanthin in terms of free astaxanthin was compounded with CE-2. Each group was bred for 12 weeks, and body weight, blood glucose levels, 8-OHdG levels in urine, albumin levels in urine, and kidney histopathology, were measured. Astaxanthin used here was AstaReal (registered trademark, Fuji Chemical Industry Co., Ltd.) 50F, which is oil composed of astaxanthin fatty acid ester and triglycerides and contains 5% astaxanthin in terms of free astaxanthin.
(§2) After the period of test breeding, kidney was removed and frozen at −80° C. Using an LM200 system (Olympus Corporation), the renal glomerulus was cut from kidney of mice while keeping low temperature. tRNA of renal glomerulus was extracted using tRNA extraction regent “Isogen” (produced by Nippon Gene Co., Ltd.), and then preparation of cRNA and hybridization were performed according to the Affymetrix GeneChip Eukaryotic Small Sample Target Labeling Assay Ver. II.
(§3) (1) Synthesis of first strand cDNA: 1 μL of total RNA solution and 1 of 5 μM T7-Oligo(dT) primer were mixed, heated at 70° C. for 6 minutes, and then cooled at 4° C. for 2 minutes. 3 μL of RT_Premix_1 (1.5 μL DEPC-treated water, 4 μL 5× First strand Buffer, 2 μL DTT (0.1 M), 1.5 μL dNTP Mix (10 mM), 1 μL RNase inhibitor (40 U/μL), and 2 μL Super-Script II (200 U/μL)) was added and reverse transcribed at 42° C. for 1 hour. The sample was heated at 70° C. for 10 minutes to inactivate Super Script II, and then cooled to 4° C. (2) Synthesis of second strand cDNA: 32.5 μl of SS_Premix_1 (91 μL DEPC-treated water, 30 μL 5× Second Strand Buffer, 3 μL dNTP (10 mM), 1 μL E. coli DNA ligase (10 U/μL); 4 μL E. coli DNA polymerase (10 U/μL), and 1 μL RNase H (2 U/μL)) was added to the first strand cDNA solution and allowed to react for 2 hours at 16° C. (3) To the resulting cDNA, was added 1 μL T4 DNA polymerase (5 U/μl) and allowed to react for 10 minutes at 16° C., and purified by ethanol precipitation. (4) In vitro transcription: To the dried double-stranded cDNA pellet, was added 10 μL of reagents (4 μL DEPC-treated water, 4 μL premixed NTPs, 1 μL 10× reaction buffer, and 1 μL 10× enzyme mix), and allowed to react at 37° C. in a water bath for 6 hours. (5) First cycle cRNA was purified using the RNeasy Mini Kit in accordance with the protocol in the handbook (QIAGEN). (6) Subsequently, for the amplification and labeling, the cRNA sample was mixed with random primers (0.2 μg/μL), treated at 70° C. for 10 minutes, cooled on ice for 2 minutes, 5 μL of RT_Premix_2 (5× First Strand Buffer, DTT (0.1 M), dNTP mix (10 mM), RNase inhibitor (40 U/μL), and SuperScript II (200 U/μL) was added, and allowed to react at 42° C. for 1 hour. (7) Next, Second Sstrand cDNA synthesis was carried out by adding 5 μM T7-Oligo(dT) promoter treating at 70° C. for 6 minutes, cooling at 4° C., and adding 62 μL of SS_Premix_2 (43 μL it DEPC-treated water, 15 μL 5× Second Strand Buffer, 1.5 μL dNTP mix (10 mM), and 2 μL E. coli DNA polymerase (10 U/μL)). (8) To the resulting cDNA, was treated added 1 μL of T4 DNA polymerase (5 U/μL), allowed to react at 16° C. for 10 minutes, and purified by ethanol precipitation. […]

[2] = test system: septin 7; conditions: probe 1454610_at, 0.02% in diet, 12 weeks
Method: as §1, §2, §3

[3] = test system: catalase; conditions: probe 1416430_at, 0.02% in diet, 12 weeks
Method: as §1, §2, §3

[4] = test system: macrophage scavenger receptor 1; conditions: probe 1448061_at, 0.02% in diet, 12 weeks
Method: as §1, §2, §3

[5] = test system: caspase 7; conditions: probe 1434099_at, 0.02% in diet, 12 weeks
Method: as §1, §2, §3

[6] = test system: C1q and tumor necrosis factor related protein 5; conditions: probe 1424762_at, 0.02% in diet, 12 weeks
Method: as §1, §2, §3

[7] = test system: C1q related factor; conditions: probe 1422777_at, 0.02% in diet, 12 weeks
Method: as §1, §2, §3

[8] = test system: procollagen, type IV, alpha 5; conditions: probe 1425476_at, 0.02% in diet, 12 weeks
Method: as §1, §2, §3

[9] = test system: ring finger protein 128; conditions: probe 1449036_at, 0.02% in diet, 12 weeks
Method: as §1, §2, §3

[10] = test system: superoxide dismutase 1, soluble; conditions: 0.02% in diet, 12 weeks
Method: as §1, §2, §3

[11] = test system: FK506 binding protein 1a; conditions: probe 1448184_at (Table 4), 0.02% in diet, 12 weeks
Method: as §1, §2, §3

With `CC1=C(/C=C/C(C)=C/C=C/C(C)=C/C=C/C=C(C)/C=C/C=C(C)/C=C/C2=C(C)C(=O)C(O)CC2(C)C)C(C)(C)CC(O)C1=O` (stereo not drawn) [astaxanthin, 3,3′-dihydroxy-β,β-carotene-4,4′-dione] the “gene expression intensity ratio db/db(Ax):db/db” value [1] was 0.19, the “gene expression intensity ratio db/db(Ax):db/m” value [1] was 0.87 and the “gene expression relative ratio db/db(Ax):db/db” value [2] was 0.76. The “gene expression relative ratio db/db(Ax):db/m” value [2] was 36.76, the “gene expression relative ratio db/db(Ax):db/db” value [3] was 0.33 and the “gene expression relative ratio db/db(Ax):db/m” value [3] was 8.57. The “gene expression intensity ratio db/db(Ax):db/db” value [4] was 0.25, the “gene expression intensity ratio db/db(Ax):db/m” value [4] was 1.32 and the “gene expression relative ratio db/db(Ax):db/db” value [5] was 0.87. The “gene expression relative ratio db/db(Ax):db/m” value [5] was 68.59, the “gene expression intensity ratio db/db(Ax):db/db” value [6] was 2.00 and the “gene expression intensity ratio db/db(Ax):db/m” value [6] was 1.23. For the same compound, the “gene expression intensity ratio db/db(Ax):db/db” value [7] was 1.32, the “gene expression intensity ratio db/db(Ax):db/m” value [7] was 0.71 and the “gene expression intensity ratio db/db(Ax):db/db” value [8] was 0.50. For the same compound, the “gene expression intensity ratio db/db(Ax):db/m” value [8] was 2.00, the “gene expression relative ratio db/db(Ax):db/db” value [9] was 0.1 and the “gene expression relative ratio db/db(Ax):db/m” value [9] was 1.62. The “gene expression relative ratio db/db(Ax):db/db” value [10] was 0.23, the “gene expression relative ratio db/db(Ax):db/m” value ([10]; probe 1448184_at (Table 5)) was 4.00 and the “gene expression relative ratio db/db(Ax):db/db” value [11] was 0.66. The “gene expression relative ratio db/db(Ax):db/m” value [11] was 6.50.
